IC50 data for 20 compounds are collected here from patent US20260125370A1, “SULFOXIMINE COMPOUNDS AS HISTONE DEACETYLASE 6 INHIBITOR, AND PHARMACEUTICAL COMPOSITION COMPRISING THE SAME” (CHONG KUN DANG PHARMACEUTICAL CORP., priority 2022, published 2026).

One test has as its target T1, human recombinant HDAC6 (Homo sapiens, UniProt Q9UBN7).
T1 construct: purchased Calbiochem 382180
T1 sequence (Q9UBN7 1-1215): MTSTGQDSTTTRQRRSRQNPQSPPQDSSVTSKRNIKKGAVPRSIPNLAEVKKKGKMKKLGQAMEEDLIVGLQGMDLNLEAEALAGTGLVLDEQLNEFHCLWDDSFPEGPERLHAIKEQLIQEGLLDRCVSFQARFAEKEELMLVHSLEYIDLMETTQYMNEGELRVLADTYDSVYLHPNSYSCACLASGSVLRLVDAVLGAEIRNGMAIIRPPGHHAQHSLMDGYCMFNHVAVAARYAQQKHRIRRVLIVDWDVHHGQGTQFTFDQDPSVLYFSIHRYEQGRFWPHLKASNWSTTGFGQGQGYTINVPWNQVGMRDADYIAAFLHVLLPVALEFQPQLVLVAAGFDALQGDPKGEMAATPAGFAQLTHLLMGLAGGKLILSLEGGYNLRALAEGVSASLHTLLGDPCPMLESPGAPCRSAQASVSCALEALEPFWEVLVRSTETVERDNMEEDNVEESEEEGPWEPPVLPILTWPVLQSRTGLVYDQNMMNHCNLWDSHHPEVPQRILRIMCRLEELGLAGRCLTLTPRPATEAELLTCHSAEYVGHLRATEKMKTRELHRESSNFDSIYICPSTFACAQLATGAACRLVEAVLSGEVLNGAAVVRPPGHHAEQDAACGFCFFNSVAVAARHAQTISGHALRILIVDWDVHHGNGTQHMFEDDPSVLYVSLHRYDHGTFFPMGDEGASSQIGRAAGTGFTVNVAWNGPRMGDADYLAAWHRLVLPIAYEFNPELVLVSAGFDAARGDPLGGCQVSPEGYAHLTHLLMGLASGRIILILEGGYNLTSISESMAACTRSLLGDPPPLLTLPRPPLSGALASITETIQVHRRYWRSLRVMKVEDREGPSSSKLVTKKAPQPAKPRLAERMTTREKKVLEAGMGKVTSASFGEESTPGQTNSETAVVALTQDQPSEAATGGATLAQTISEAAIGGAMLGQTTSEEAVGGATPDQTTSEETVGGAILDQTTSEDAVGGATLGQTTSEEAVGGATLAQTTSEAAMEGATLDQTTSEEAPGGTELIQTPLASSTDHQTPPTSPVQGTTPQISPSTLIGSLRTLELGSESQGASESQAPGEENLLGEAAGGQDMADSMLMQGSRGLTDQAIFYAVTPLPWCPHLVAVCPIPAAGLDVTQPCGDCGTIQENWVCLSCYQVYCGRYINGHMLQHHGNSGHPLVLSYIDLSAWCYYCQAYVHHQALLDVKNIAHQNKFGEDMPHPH
Put plainly: HDAC6 enzyme activity inhibition (fluorimetric, in vitro). The format is biochemical. To be noted: samples at 0.1, 1, 10, 100 and 1000 nM. The protocol: (§1) A HDAC enzyme inhibitory capacity of a test material was measured by using HDAC1 Fluorimetric Drug Discovery Assay Kit (Enzolifesciences: BML-AK511) and HDAC6 human recombinant (Calbiochem: 382180). For a HDAC1 assay, samples were treated at a concentration of 100, 1000 and 10000 nM. For a HDAC6 assay, samples were treated at a concentration of 0.1, 1, 10, 100 and 1000 nM.
(§2) For the test on the HDAC1 enzyme activity, human recombinant HDAC1 (BML-SE456) was used as a zymogen and Fluor de Lys®-SIRT1 (BNL-KI177) was used as a substrate. A 5-fold dilution of the compound was divided into a 96-well plate, after which 0.3 μg of the enzyme and […] of the substrate were inserted into each well and subjected to reaction at 37° C. for 60 minutes, such that Fluor de Lys® Developer II (BML-K1176) was inserted thereinto and subjected to reaction for 30 minutes and finished. After that, a fluorescence value (Ex 360, Em 460) was measured with a multi-plate reader (FlexStation 3, Molecular Device). An experiment on HDAC6 enzyme was conducted in accordance with the same protocol as in the HDAC1 enzyme activity test method by using human recombinant HDAC6 (382180) of Calbiochem Inc. For final result values, each IC50 value was calculated with GraphPad Prism 4.0 program.

For another test, the target named is T2, human recombinant HDAC1 (Homo sapiens, UniProt Q13547).
T2 construct: purchased Enzolifesciences BML-SE456
T2 sequence (Q13547 whole entry): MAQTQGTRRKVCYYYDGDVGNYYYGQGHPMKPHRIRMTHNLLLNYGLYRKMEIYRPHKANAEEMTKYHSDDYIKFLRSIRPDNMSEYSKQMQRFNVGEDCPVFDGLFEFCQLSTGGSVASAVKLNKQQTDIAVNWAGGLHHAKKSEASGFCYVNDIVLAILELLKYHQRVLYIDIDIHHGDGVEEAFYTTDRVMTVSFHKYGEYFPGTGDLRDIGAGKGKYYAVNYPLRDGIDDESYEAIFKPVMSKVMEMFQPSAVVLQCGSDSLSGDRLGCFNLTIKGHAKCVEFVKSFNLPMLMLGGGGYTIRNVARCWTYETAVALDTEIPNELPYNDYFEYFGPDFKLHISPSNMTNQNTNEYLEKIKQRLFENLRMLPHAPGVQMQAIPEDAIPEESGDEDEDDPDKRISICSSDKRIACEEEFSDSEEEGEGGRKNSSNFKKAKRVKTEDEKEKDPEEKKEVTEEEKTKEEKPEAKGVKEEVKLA
Put plainly: HDAC1 enzyme activity inhibition (HDAC1 Fluorimetric Drug Discovery Assay Kit, in vitro). Format: biochemical. Conditions: samples at 100, 1000 and 10000 nM. The method, then: as §1, §2

pIC50: −log10 of the molar value. A value given as a limit tells only on which side of the number the result lay.

Take `O=C(N=S1(=O)CCN(C(=O)N(Cc2ccc(-c3nnc(C(F)F)o3)nn2)c2cccc(F)c2)CC1)OCc1ccccc1` [Compound 79, Benzyl N-[4-[[6-[5-(difluoromethyl)-1,3,4-oxadiazol-2-yl]pyridazin-3-yl]methyl-(3-fluorophenyl)carbamoyl]-1-oxo-1,4-thiazinan-1-ylidene]carbamate]: the figures for the pIC50 on human recombinant HDAC6 and at human recombinant HDAC1 were 7.06 and under 5.00, respectively.

`N=S1(=O)CCN(C(=O)N(Cc2ccc(-c3nnc(C(F)F)o3)cc2F)c2cccs2)CC1` [Compound 12, N-(4-(5-(difluoromethyl)-1,3,4-oxadiazol-2-yl)-2-fluorobenzyl)-1-imino-N-(thiophen-2-yl)thiomorpholin-4-carboxamide 1-oxide]: the negative-log IC50 (pIC50) (commonly −log10 of the IC50, conventionally taken in molar units) was 7.20 on human recombinant HDAC6 and under 5.00 at human recombinant HDAC1.

Take `N=S1(=O)CCN(C(=O)N(Cc2ccc(-c3nnc(C(F)F)o3)cc2F)c2ccc(-c3ccco3)cc2)CC1` [Compound 23, N-(4-(5-(difluoromethyl)-1,3,4-oxadiazol-2-yl)-2-fluorobenzyl)-N-(4-(furan-2-yl)phenyl)-1-iminothiomorpholin-4-carboxamide 1-oxide]: the pIC50 on human recombinant HDAC6 is 7.19; on human recombinant HDAC1, under 5.00.

Consider `N=S1(=O)CCN(C(=O)N(Cc2ccc(-c3nnc(C(F)F)o3)cc2F)c2cc(F)ccc2F)CC1` [Compound 33, N-(4-(5-(difluoromethyl)-1,3,4-oxadiazol-2-y1)-2-fluorobenzyl)-N-(2,5-difluorophenyl)-1-iminothiomorpholin-4-carboxamide 1-oxide], for which the results for the pIC50 on human recombinant HDAC6 and at human recombinant HDAC1 were 7.29 and under 5.00, respectively.

Consider `Cc1cccc(N(Cc2ccc(-c3nnc(C(F)F)o3)cc2F)C(=O)N2CCS(=N)(=O)CC2)c1` [Compound 32, N-(4-(5-(difluoromethyl)-1,3,4-oxadiazol-2-y1)-2-fluorobenzyl)-1-imino-N-(m-tolyl)thiomorpholin-4-carboxamide 1-oxide], for which the pIC50 is 7.09 on human recombinant HDAC6 and under 5.00 on human recombinant HDAC1.

For the compound `N=S1(=O)CCN(C(=O)N(Cc2ccc(-c3nnc(C(F)F)o3)cc2F)c2ccsc2)CC1` [Compound 26, N-(4-(5-(difluoromethyl)-1,3,4-oxadiazol-2-yl)-2-fluorobenzyl)-1-imino-N-(thiophen-3-yl)thiomorpholin-4-carboxamide 1-oxide], the results for the pIC50 at human recombinant HDAC6 and at human recombinant HDAC1 were 7.01 and under 5.00, respectively.

As to `N=S1(=O)CCN(C(=O)N(Cc2ccc(-c3nnc(C(F)F)o3)cc2F)c2cccc(F)c2)CC1` [Compound 13, N-(4-(5-(difluoromethyl)-1,3,4-oxadiazol-2-yl)-2-fluorobenzyl)-N-(3-fluorophenyl)-1-iminothiomorpholin-4-carboxamide 1-oxide], the negative logarithm of the IC50 (pIC50) at human recombinant HDAC6 was 7.36; on human recombinant HDAC1, under 5.00.

Consider `N=S1(=O)CCN(C(=O)N(Cc2ccc(-c3nnc(C(F)F)o3)cn2)c2cccc(F)c2)CC1` [Compound 17], for which the negative logarithm of the IC50 (pIC50) on human recombinant HDAC6 is 7.57; on human recombinant HDAC1 it was under 5.00.

For `N=S1(=O)CCN(C(=O)N(Cc2ccccc2)Cc2ccc(-c3nnc(C(F)F)o3)cc2F)CC1` [Compound 24, N-benzyl-N-(4-(5-(difluoromethyl)-1,3,4-oxadiazol-2-y1)-2-fluorobenzyl)-1-iminothiomorpholin-4-carboxamide 1-oxide], the pIC50 was 6.00 on human recombinant HDAC6 and under 5.00 on human recombinant HDAC1.

Consider `N=S1(=O)CCN(C(=O)N(Cc2ccc(-c3nnc(C(F)F)o3)cc2F)c2cccc(-c3ccco3)c2)CC1` [Compound 44, N-(4-(5-(difluoromethyl)-1,3,4-oxadiazol-2-yl)-2-fluorobenzyl)-N-(3-(furan-2-yl)phenyl)-1-iminothiomorpholin-4-carboxamide 1-oxide], for which the pIC50 was 6.89 at human recombinant HDAC6 and under 5.00 on human recombinant HDAC1.

As for `N=S1(=O)CCN(S(=O)(=O)N(Cc2ccc(-c3nnc(C(F)F)o3)cc2F)c2ccccc2)CC1` [Compound 18, N-(4-(5-(difluoromethyl)-1,3,4-oxadiazol-2-yl)-2-fluorobenzyl)-1-imino-N-phenylthiomorpholin-4-sulfonamide 1-oxide], the pIC50 at human recombinant HDAC6 was 7.49; at human recombinant HDAC1 it was under 5.00.

As for `CC(=O)N1CCC(c2ccc(N(Cc3ccc(-c4nnc(C(F)F)o4)cc3F)C(=O)N3CCS(=N)(=O)CC3)cc2)CC1` [Compound 67], the pIC50 at human recombinant HDAC6 is 6.46; on human recombinant HDAC1, under 5.00.

For the compound `CS(=N)(=O)C1CN(C(=O)N(Cc2ccc(-c3nnc(C(F)F)o3)cc2F)c2cccc(F)c2)C1` (stereo not shown) [Compound 91, N-[[4-[5-(difluoromethyl)-1,3,4-oxadiazol-2-yl]-2-fluoro-phenyl]methyl]-N-(3-fluorophenyl)-3-(methylsulfonimidoyl)azetidin-1-carboxamide], the negative-log IC50 (pIC50) was 7.34 at human recombinant HDAC6 and under 5.00 at human recombinant HDAC1.

Turning to `N=S1(=O)CCN(C(=O)N(Cc2ncc(-c3nnc(C(F)F)o3)cc2F)c2ccccc2F)CC1` [Compound 55], the pIC50 is 6.85 at human recombinant HDAC6 and under 5.00 at human recombinant HDAC1.

For `N=S1(=O)CCN(C(=O)N(Cc2ccc(-c3nnc(C(F)F)o3)cn2)c2ccc(F)cc2)CC1` [Compound 62, N-[[5-[5-(difluoromethyl)-1,3,4-oxadiazol-2-yl]-2-pyridyl]methyl]-N-(4-fluorophenyl)-1-imino-1-oxo-1,4-thiazinan-4-carboxamide], the pIC50 at human recombinant HDAC6 was 7.05; on human recombinant HDAC1 it was under 5.00.

Regarding `N=S1(=O)CCN(C(=O)N(Cc2ccc(-c3nnc(C(F)F)o3)cc2F)c2ccc(F)cc2)CC1` [Compound 63, N-[[4-[5-(difluoromethyl)-1,3,4-oxadiazol-2-yl]-2-fluoro-phenyl]methyl]-N-(4-fluorophenyl)-1-imino-1-oxo-1,4-thiazinan-4-carboxamide], the pIC50 at human recombinant HDAC6 was 7.00; on human recombinant HDAC1, under 5.00.

As for `N=S1(=O)CCN(C(=O)N(Cc2ncc(-c3nnc(C(F)F)o3)cc2F)c2ccc(Cl)cc2Cl)CC1` [Compound 50, N-(2,4-dichlorophenyl)-N-((5-(5-(difluoromethyl)-1,3,4-oxadiazol-2-y1)-3-fluoropyridin-2-yl)methyl)-1-iminothiomorpholin-4-carboxamide 1-oxide], the pIC50 at human recombinant HDAC6 was 7.18; on human recombinant HDAC1, under 5.00.

For the compound `N=S1(=O)CCN(C(=O)N(Cc2ccc(-c3nnc(C(F)F)o3)cn2)c2ccccc2F)CC1` [Compound 57], the pIC50 is 6.89 at human recombinant HDAC6 and under 5.00 at human recombinant HDAC1.

As for `COC(=O)N=S1(=O)CCN(C(=O)N(Cc2ccc(-c3nnc(C(F)F)o3)cc2F)c2ccccc2)CC1` [Compound 38, Methyl (4-((4-(5-(difluoromethyl)-1,3,4-oxadiazol-2-yl)-2-fluorobenzyl)(phenyl)carbamoyl)-1-oxidothiomorpholin-1-ylidene)carbamate], the pIC50 at human recombinant HDAC6 is 7.17; at human recombinant HDAC1, under 5.00.

On to `N=S1(=O)CCN(C(=O)N(Cc2ccc(-c3nnc(C(F)F)o3)cn2)c2cccs2)CC1` [Compound 16, N-((5-(5-(difluoromethyl)-1,3,4-oxadiazol-2-yl)pyridin-2-yl)methyl)-1-imino-N-(thiophen-2-yl)thiomorpholin-4-carboxamide 1-oxide], for which the pIC50 is 7.37 at human recombinant HDAC6 and under 5.00 at human recombinant HDAC1.
